What was measured:
[1] = system: SMN2 mRNA in GM03813 SMA patient cells; test: Endogenous SMN2 mRNA end-point semi-quantitative RT-PCR splicing assay in cultured cells; format: cell-based, human; conditions: Type 1 SMA patient fibroblasts, increasing concentrations, 24 hr, end-point RT-PCR (FIG. 5)
Experimental: The endpoint reverse transcription-PCR splicing assay is used to visualize and quantify the levels of the full length and Δ7 SMN2 mRNA in primary cells and cell lines containing the SMN2 gene treated with a test compound.
(§1) Protocol. GM03813 SMA patient cells (5,000 cells/well) are seeded in 200 μL of cell culture medium (DMEM plus 10% FBS) in 96-well flat-bottom plates and the plate is immediately swirled to ensure proper dispersal of cells, forming an even monolayer of cells. Cells are allowed to attach for at least 4-6 hrs. Test compounds are serially diluted 3.16-fold in 100% DMSO to generate a 7-point concentration curve. A solution of test compound (1 μL, 200× in DMSO) is added to each test well and 1 μL DMSO is added to each control well. The plate is incubated for 24 hrs in a cell culture incubator (37° C., 5% CO2, 100% relative humidity). The cells are then lysed in Cells-To-Ct lysis buffer and the lysate is stored at −80° C.
SMN FL and Δ7 mRNA are identified using the following primers in Table 6. These primers hybridize to a nucleotide sequence in exon 6 (SMN Forward C, SEQ ID NO. 11) (nucleotide 43 to nucleotide 63) and exon 8 (SMN Reverse C, SEQ ID NO. 12) (nucleotide 51 to nucleotide 73) common to human SMN1 and SMN2 mRNA. Since the SMA patient cells used in Example 4 contain only the SMN2 gene, RT-PCR can visualize and quantify only SMN2 full-length and SMN2 Δ7 mRNA.
To synthesize cDNA, 5 μL of lysate, 4 μL of 5× iScript reaction mix, 1 μL of reverse transcriptase, and 10 μL of water are combined and incubated 5 min at 25° C. followed by 30 min at 42° C., followed by 5 min at 85° C. The cDNA solution is stored at −20° C.
To perform endpoint PCR, 5 μL of cDNA, 0.2 μL of 100 μM forward primer, 0.2 μL of 100 μM reverse primer, and 22.5 μL of polymerase super mix are combined in a 96 well semiskirted PCR plate. PCR is carried out at the following temperatures for the indicated time: Step 1: 94° C. (2 min), Step 2: 94° C. (30 sec), Step 3: 55° C. (30 sec), Step 4: 68° C. (1 min), then repeat Steps 2 to 4 for a total of 33 cycles, then hold at 4° C.
10 μL of each PCR sample is electrophoretically separated on a 2% agarose E-gel for 14 minutes stained with double-stranded DNA (dsDNA) staining reagents (e.g., ethidium bromide) and visualized using a gel imager.

[2] = system: SMN2 mRNA in GM03813 SMA patient cells; test: Endogenous SMN2 mRNA RT-qPCR splicing assay in cultured cells; format: cell-based, human; conditions: Type 1 SMA patient fibroblasts, increasing concentrations, 24 hr, versus vehicle (FIG. 4)
Experimental: The reverse transcription-quantitative PCR-based (RT-qPCR) assay is used to quantify the levels of the full length and Δ7 SMN2 mRNA in primary cells and cell lines containing the SMN2 gene treated with a test compound.
as §1
SMN2-specific spliced products and GAPDH mRNA are identified using the following primers and probes in Table 5. Primer SMN FL Forward B (SEQ ID NO. 7) hybridizes to a nucleotide sequence in exon 7 (nucleotide 32 to nucleotide 54) and exon 8 (nucleotide 1 to nucleotide 4), primer SMN Δ7 Forward B (SEQ ID NO. 8) hybridizes to a nucleotide sequence in exon 6 (nucleotide 87 to nucleotide 111) and exon 8 (nucleotide 1 to nucleotide 3), primer SMN Reverse B (SEQ ID NO. 9) hybridizes to a nucleotide sequence in exon 8 (nucleotide 39 to nucleotide 62), probe SMN Probe B (SEQ ID NO. 10) hybridizes to a nucleotide sequence in exon 8 (nucleotide 7 to nucleotide 36). These primers and probes hybridize to nucleotide sequences common to human SMN1 and SMN2 mRNA. Since the SMA patient cells used in Example 3 contain only the SMN2 gene, RT-qPCR can quantify only SMN2 full-length and Δ7 mRNA.
The SMN forward and reverse primers are used at final concentrations of 0.4 μM. The SMN probe is used at a final concentration of 0.15 μM. GAPDH primers are used at final concentrations of 0.1 μM and the probe at 0.075 μM. […]
The increase of SMN2 FL and decrease in SMN2 Δ7 mRNA relative to those in cells treated with vehicle control are determined from real-time PCR data using a modified ΔΔCt method (as described in Livak and Schmittgen, Methods, 2001, 25:402-8). The amplification efficiency (E) is calculated from the slope of the amplification curve for SMN2 FL, SMN2 Δ7, and GAPDH individually. The abundances of SMN2 FL, SMN2 Δ7, and GAPDH are then calculated as (1+E)^−Ct, where Ct is the threshold value for each amplicon. […]

COc1ccc(-c2cc(=O)n3cc(N4CCNCC4)ccc3n2)cc1OC [Cpd 6, 2-(3,4-dimethoxyphenyl)-7-(piperazin-1-yl)-4H-pyrido[1,2-a]pyrimidin-4-one]
SMN2 FL mRNA [1]: progressively more SMN2 FL mRNA
SMN2 Δ7 mRNA [1]: less SMN2 Δ7 mRNA
SMN2 FL mRNA [2]: progressively more SMN2 FL mRNA
SMN2 Δ7 mRNA [2]: less SMN2 Δ7 mRNA

Cc1cn2nc(-c3cc(=O)n4cc(N5CCN(C)CC5)ccc4n3)cc2c(C)n1 [Cpd 170, 2-(4,6-dimethylpyrazolo[1,5-a]pyrazin-2-yl)-7-(4-methylpiperazin-1-yl)-4H-pyrido[1,2-a]pyrimidin-4-one]
SMN2 FL mRNA [1]: progressively more SMN2 FL mRNA
SMN2 Δ7 mRNA [1]: less SMN2 Δ7 mRNA
SMN2 FL mRNA [2]: progressively more SMN2 FL mRNA
SMN2 Δ7 mRNA [2]: less SMN2 Δ7 mRNA
